For test [1] the following is noted: summary table; cited from earlier work.
Test [2] has as its system restenosis. To be noted: summary table; cited from earlier work.
The conditions of test [3]: summary table; cited from earlier work. This is another data set of the same source.
Another test has as its system smooth muscle cells. Conditions: conversion from non-contractile to contractile phenotype in vitro; cited from earlier work.
The next test deals with endothelial cells. To be noted: summary table; cited from earlier work.
The next test has as its system collagen expression. To be noted: summary table; cited from earlier work.
For test [4], the system named is restenosis. Conditions: summary table; cited from earlier work. This is another data set of the same source.
In test [5] the test system is restenosis. To be noted: summary table; cited from earlier work. This is another data set of the same source.
Test [6] has as its system rat vascular smooth muscle cells. Description: Vascular smooth muscle cell proliferation (cell number). Type of test: cell-based. To be noted: concentration-dependent; PTU 0.05-5 millimolar, methimazole 0.01-1 millimolar. On the procedure:
(§1) Rat vascular smooth muscle cells (VSMCs) (passages 5-10) were prepared from Sprague-Dawley rats and cultured in Dulbecco's modified Eagle's medium (DMEM) supplemented with 10% fetal bovine serum (FBS) as previously described (Kirschenlohr et al, in “Human Cell Culture Protocols”, New Jersey, Humana Press Inc, 1996, pp. 318-335). Human endothelial cells from umbilical veins were prepared as described (Morgan, in “Human Cell Culture Protocols”, New Jersey, Humana Press Inc, 1996, pp. 101-152)
(§2) Rat vascular smooth muscle cells and human endothelial cells were plated at a density of 10,000 cells per square centimeter in 24-well plates. After 24 hours, cells at 70-80% confluency were treated with propylthiouracil dissolved in 100% dimethylsulfoxide (DMSO) at final concentrations of from 0.05 millimolar to 15 millimolar, or with methimazole (Sigma, St. Louis, Mo.) dissolved in water at the concentrations of from 0.01 millimolar to 1 millimolar for 24-72 hours. Cell numbers were visually counted using a hemocytometer. For the thymidine incorporation study, cells were deprived of serum for 36 hours and labeled with [methyl-^3H]thymidine at […] per milliliter for 12-24 hours after synchronization. Thymidine incorporation was then measured (Newby and George, 1996, Curr. Opin. Cardiol., 11:547). Effects of propylthiouracil and methimazole on the number of vascular smooth muscle cells and human endothelial cells and thymidine incorporation by vascular smooth muscle cells were each expressed as a percentage of the number and thymidine incorporation of control cells maintained in medium containing 0.1% DMSO as vehicle.

The test system is the same in test [7]. Description: [methyl-3H]thymidine incorporation into VSMCs. Type of test: cell-based. Conditions: concentration-dependent. The procedure:
as §1, §2
Throughout, for Anti-coagulation: key: '+' represents the ability; a '−' represents the inability of conversion from a non-contracile phenotype to a contractile phenotype in an in vitro condition; A '↓' represents decrease; a '?' represents no data is available.
Throughout, for Anti-inflammation: key: '+' represents the ability; a '−' represents the inability of conversion from a non-contracile phenotype to a contractile phenotype in an in vitro condition; A '↓' represents decrease; a '?' represents no data is available.
Throughout, for Effect on animal models of restenosis, Rat: key: '+' represents the ability; a '−' represents the inability of conversion from a non-contracile phenotype to a contractile phenotype in an in vitro condition; A '↓' represents decrease; a '?' represents no data is available.
Throughout, for Phenotype change: key: '+' represents the ability; a '−' represents the inability of conversion from a non-contracile phenotype to a contractile phenotype in an in vitro condition; A '↓' represents decrease; a '?' represents no data is available.

With `CC1=C(/C=C/C(C)=C/C=C/C(C)=C/C(=O)O)C(C)(C)CCC1` [All-trans retinoic acid], in test [1], the Anti-coagulation entry is reported as “−”. Moreover, the “Effect on animal models of restenosis, Rat” value (from here on “Effect on animal models … Rat”) with restenosis [2] is given as “+”. The Anti-inflammation result in test [3] is “−”. The Phenotype change result with smooth muscle cells is on record as “+”. Besides, in the test on endothelial cells, the Endothelial cellular function result is “+”. Further, the Collagen expression entry in the test on collagen expression is given as “↑”.

Consider `CC(=O)O[C@H]1C(=O)[C@@]2(C)[C@H]([C@H](OC(=O)c3ccccc3)[C@]3(O)C[C@H](OC(=O)[C@H](O)[C@@H](NC(=O)c4ccccc4)c4ccccc4)C(C)=C1C3(C)C)[C@]1(OC(C)=O)CO[C@@H]1C[C@@H]2O` [Paclitaxel], for which the “Effect on restenosis, Human” value with restenosis [4] is on record as “+”. Moreover, the “Effect on animal models … Rat” value in the test on restenosis [2] was “+”. Besides, the Endothelial cellular function result with endothelial cells was “−”. The “Effect on animal models of restenosis, Pig” value in the test with restenosis [5] is on record as “+”.

For `Cn1cc[nH]c1=S` [methimazole], the “Inhibition of growth/proliferation of VSMCs” value in test [6] is “but not methimazole (MMI), significantly inhibited”. In [7], the “Inhibition of thymidine incorporation into VSMCs” value is listed as “but not methimazole (MMI), significantly inhibited”.

For Heparin, the “Effect on restenosis, Human” value in the test on restenosis [4] was “−”. Besides, in test [1], the Anti-coagulation result was “+”. Besides, in the test with restenosis [2], the “Effect on animal models … Rat” value is “+”. Further, the Anti-inflammation result in test [3] is listed as “−”. Besides, in the test on smooth muscle cells, the Phenotype change result is listed as “−”. In the test on endothelial cells, the Endothelial cellular function result is “−”. Also, the “Effect on animal models of restenosis, Pig” value in the test with restenosis [5] is recorded as “+”.

These data come from patent US6939863B2, “Prevention of atherosclerosis and restenosis” (priority 2002, dated 2005).
